For eight compounds, IC90 results are on record in patent publication US10941157B2, “Pesticidal compositions and uses thereof” (Gilead Apollo, LLC, priority 2015, dated 2021).

What all share (format): cell-based
In one assay the test system is Botrtyis cinerea (Bc). As to the kind of experiment: In vitro pathogen growth inhibition assay, Bc. The following applies: 48 h. The gist of the method: (§1)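 Value reported is the compound concentration reaching ≥90% growth inhibition, from OD readings at 24 and 48 h after blank subtraction, confirmed visually. Inoculum was spores diluted in 17% V8 medium, except Rs, using 1.5 mm mycelial plugs in ¼ PDB; actual compound concentration corrected via OD600.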

Assay [1] has as its system Collectotrichum graminicola (Cg). The assay can be described thus: In vitro pathogen growth inhibition assay, Cg. Conditions: 48 h. The gist of the method:
as §1

The next assay has as its system Diplodia maydis (Dm). As to the kind of experiment: In vitro pathogen growth inhibition assay, Dm. Conditions: Stenocarpella maydis, 48 h. Summed up:
as §1

In assay [2] the test system is Fusarium moniliforme (Fm). As to the kind of experiment: In vitro pathogen growth inhibition assay, Fm. The following applies: Fusarium verticillioides. Summed up:
as §1

In assay [3] the test system is Fusarium virguliforme (Fv). As to the kind of experiment: In vitro pathogen growth inhibition assay, Fv. Summed up: as §1
In assay [4] the test system is Phytophthora capsici (Pc). As to the kind of experiment: In vitro pathogen growth inhibition assay, Pc. Conditions: 48 h. Summed up:
as §1

The test system of another assay is Rhizoctonia solani (Rs). As to the kind of experiment: In vitro pathogen growth inhibition assay, Rs (mycelial plugs). Conditions: Rhizoctonia solani, 48 h. The gist of the method:
as §1

The next assay has as its system Septoria tritici (St). As to the kind of experiment: In vitro pathogen growth inhibition assay, St. Conditions: Zymoseptoria tritici, 48 h. Summed up:
as §1

[5] abbreviates: ≥90% growth inhibition, 48 hours, vs 2% DMSO control, read-out: Compound Concentration (ppm) sufficient for ≥90% inhibition of Bc.
Where [6] appears, read: ≥90% growth inhibition, 48 hours, vs 2% DMSO control, read-out: Compound Concentration (ppm) sufficient for ≥90% inhibition of Cg.
Setting [7] is: ≥90% growth inhibition, 48 hours, vs 2% DMSO control, read-out: Compound Concentration (ppm) sufficient for ≥90% inhibition of Dm.
Where [8] appears, read: ≥90% growth inhibition, 48 hours, vs 2% DMSO control, read-out: Compound Concentration (ppm) sufficient for ≥90% inhibition of Fm.
The mark [9] stands for this setting: ≥90% growth inhibition, 48 hours, vs 2% DMSO control, read-out: Compound Concentration (ppm) sufficient for ≥90% inhibition of Fv.
[10] abbreviates: ≥90% growth inhibition, 48 hours, vs 2% DMSO control, read-out: Compound Concentration (ppm) sufficient for ≥90% inhibition of Pc.
Setting [11] is: ≥90% growth inhibition, mycelial plugs, 48 hours, vs 2% DMSO control, read-out: Compound Concentration (ppm) sufficient for ≥90% inhibition of Rs.
Where [12] appears, read: ≥90% growth inhibition, 48 hours, vs 2% DMSO control, read-out: Compound Concentration (ppm) sufficient for ≥90% inhibition of St.

Converted amounts (≈) assume the structure as drawn. Where two headings read alike, the source gives them in different places.

For the compound `COc1ccc(F)cc1[C@](C)(Cn1c(=O)n(C(C)(C)C(=O)NC(C)C)c(=O)c2c(C)c(-n3nccn3)sc21)OCCC#N` [Compound I-273], the IC90 was 0.4 µg/mL (≈ 0.654 µM) with Botrtyis cinerea (Bc) (setting [5]); 2 µg/mL (≈ 3.27 µM) in assay [1] (setting [6]); 50 µg/mL (≈ 81.7 µM) with Diplodia maydis (Dm) (setting [7]); 0.08 µg/mL (≈ 0.131 µM) in assay [2] (setting [8]); 0.4 µg/mL (≈ 0.654 µM) in assay [3] (setting [9]); above 50 µg/mL in assay [4] (setting [10]). For the same compound, the IC90 was 2 µg/mL (≈ 3.27 µM) with Rhizoctonia solani (Rs) (setting [11]) and above 50 µg/mL in the assay on Septoria tritici (St) (setting [12]).
`COc1ccc(F)cc1[C@](O)(CCO)Cn1c(=O)n(C(C)(C)C(=O)NC(C)C)c(=O)c2c(C)c(-n3nccn3)sc21` [Compound I-275]: the IC90 in the assay with Botrtyis cinerea (Bc) (concentration sufficient to ≥90% inhibition of growth, 48 hours vs 2% DMSO control, read-out: Compound Concentration (ppm) for ≥90% inhibition, Bc) was 50 µg/mL (≈ 84.9 µM); in assay [1] (concentration sufficient to ≥90% inhibition of growth, 48 hours vs 2% DMSO control, read-out: Compound Concentration (ppm) for ≥90% inhibition, Cg), 50 µg/mL (≈ 84.9 µM); in the assay on Diplodia maydis (Dm) (concentration sufficient to ≥90% inhibition of growth, 48 hours vs 2% DMSO control, read-out: Compound Concentration (ppm) for ≥90% inhibition, Dm) it was above 50 µg/mL; in assay [2] (concentration sufficient to ≥90% inhibition of growth, 48 hours vs 2% DMSO control, read-out: Compound Concentration (ppm) for ≥90% inhibition, Fm), 50 µg/mL (≈ 84.9 µM); in assay [3] (concentration sufficient to ≥90% inhibition of growth, 48 hours vs 2% DMSO control, read-out: Compound Concentration (ppm) for ≥90% inhibition, Fv) it was above 50 µg/mL; in assay [4] (concentration sufficient to ≥90% inhibition of growth, 48 hours vs 2% DMSO control, read-out: Compound Concentration (ppm) for ≥90% inhibition, Pc), above 50 µg/mL. For the same compound, the IC90 with Rhizoctonia solani (Rs) (concentration sufficient to ≥90% inhibition of growth, 48 hours vs 2% DMSO control, read-out: Compound Concentration (ppm) for ≥90% inhibition, Rs) was 50 µg/mL (≈ 84.9 µM); with Septoria tritici (St) (concentration sufficient to ≥90% inhibition of growth, 48 hours vs 2% DMSO control, read-out: Compound Concentration (ppm) for ≥90% inhibition, St), above 50 µg/mL.
Take `COc1ccc(F)cc1[C@@](O)(CCO)Cn1c(=O)n(C(C)(C)C(=O)NC(C)C)c(=O)c2c(C)c(-n3nccn3)sc21` [Compound I-276]: the IC90 was determined as 2 µg/mL (≈ 3.4 µM) with Botrtyis cinerea (Bc) (setting [5]); 2 µg/mL (≈ 3.4 µM) in assay [1] (setting [6]); 2 µg/mL (≈ 3.4 µM) in the assay with Diplodia maydis (Dm) (setting [7]); 0.4 µg/mL (≈ 0.68 µM) in assay [2] (setting [8]); 2 µg/mL (≈ 3.4 µM) in assay [3] (setting [9]); 10 µg/mL (≈ 17 µM) in assay [4] (setting [10]). In addition, the results for the IC90 in the assay with Rhizoctonia solani (Rs) (setting [11]) and with Septoria tritici (St) (setting [12]) were 0.08 µg/mL (≈ 0.136 µM) and above 50 µg/mL, respectively.
Regarding `Cc1c(-n2nccn2)sc2c1c(=O)n(C(C)(C)C(=O)NC(C)C)c(=O)n2C[C@H](OC(C)C)c1cc(F)ccc1CCC#N` [Compound I-277], the IC90 in the assay on Botrtyis cinerea (Bc) (setting [5]) was 0.4 µg/mL (≈ 0.656 µM); in assay [1] (setting [6]), 0.4 µg/mL (≈ 0.656 µM); with Diplodia maydis (Dm) (setting [7]), 2 µg/mL (≈ 3.28 µM); in assay [2] (setting [8]), 0.08 µg/mL (≈ 0.131 µM); in assay [3] (setting [9]), 0.08 µg/mL (≈ 0.131 µM); in assay [4] (setting [10]) it was above 50 µg/mL. The IC90 in the assay with Rhizoctonia solani (Rs) (setting [11]) was 0.08 µg/mL (≈ 0.131 µM); in the assay on Septoria tritici (St) (setting [12]), above 50 µg/mL.
On to `Cc1c(-n2nccn2)sc2c1c(=O)n(C(C)(C)C(=O)NC(C)C)c(=O)n2C[C@H](OCC(C)(C)O)c1cc(F)ccc1OCC#N` [Compound I-278], for which the IC90 with Botrtyis cinerea (Bc) (setting [5]) is 2 µg/mL (≈ 3.12 µM); in assay [1] (setting [6]), 0.4 µg/mL (≈ 0.623 µM); in the assay on Diplodia maydis (Dm) (setting [7]), 2 µg/mL (≈ 3.12 µM); in assay [2] (setting [8]), 0.4 µg/mL (≈ 0.623 µM); in assay [3] (setting [9]) it was 2 µg/mL (≈ 3.12 µM); in assay [4] (setting [10]), 10 µg/mL (≈ 15.6 µM). The figures for the IC90 in the assay with Rhizoctonia solani (Rs) (setting [11]) and with Septoria tritici (St) (setting [12]) were 0.4 µg/mL (≈ 0.623 µM) and above 50 µg/mL, respectively.
On to `CCc1ccc(F)cc1[C@H](Cn1c(=O)n(C(C)(C)C(=O)NC(C)C)c(=O)c2c(C)c(-n3nccn3)sc21)OCC(C)(C)C#N` [Compound I-279], for which the IC90 with Botrtyis cinerea (Bc) (setting [5]) was 0.08 µg/mL (≈ 0.128 µM); in assay [1] (setting [6]), 0.08 µg/mL (≈ 0.128 µM); in the assay with Diplodia maydis (Dm) (setting [7]) it was 2 µg/mL (≈ 3.21 µM); in assay [2] (setting [8]), 0.08 µg/mL (≈ 0.128 µM); in assay [3] (setting [9]), 0.08 µg/mL (≈ 0.128 µM); in assay [4] (setting [10]), above 50 µg/mL. Besides, the IC90 is 0.08 µg/mL (≈ 0.128 µM) in the assay with Rhizoctonia solani (Rs) (setting [11]) and above 50 µg/mL in the assay with Septoria tritici (St) (setting [12]).
As for `CCc1ccc(F)cc1[C@H](Cn1c(=O)n(C(C)(C)C(=O)NC(C)C)c(=O)c2c(C)c(-n3nccn3)sc21)O[C@H]1C[C@@H](O)C1` [Compound I-280], the IC90 in the assay on Botrtyis cinerea (Bc) (setting [5]) was found to be 2 µg/mL (≈ 3.26 µM); in assay [1] (setting [6]), 2 µg/mL (≈ 3.26 µM); in the assay on Diplodia maydis (Dm) (setting [7]) it was 2 µg/mL (≈ 3.26 µM); in assay [2] (setting [8]) it was 0.08 µg/mL (≈ 0.131 µM); in assay [3] (setting [9]), 0.4 µg/mL (≈ 0.653 µM); in assay [4] (setting [10]) it was 50 µg/mL (≈ 81.6 µM). For the same compound, the IC90 in the assay with Rhizoctonia solani (Rs) (setting [11]) is 0.08 µg/mL (≈ 0.131 µM); in the assay on Septoria tritici (St) (setting [12]), at least 50 µg/mL.
As to `Cc1c(-n2nccn2)sc2c1c(=O)n(C(C)(C)C(=O)NC(C)C)c(=O)n2C[C@H](OCCC#N)c1cc(F)ccc1O` [Compound I-282], the IC90 is 2 µg/mL (≈ 3.43 µM) in the assay with Botrtyis cinerea (Bc) (setting [5]); 2 µg/mL (≈ 3.43 µM) in assay [1] (setting [6]); at least 10 µg/mL in the assay with Diplodia maydis (Dm) (setting [7]); 0.4 µg/mL (≈ 0.685 µM) in assay [2] (setting [8]); 2 µg/mL (≈ 3.43 µM) in assay [3] (setting [9]); 10 µg/mL (≈ 17.1 µM) in assay [4] (setting [10]). Also, the figures for the IC90 in the assay with Rhizoctonia solani (Rs) (setting [11]) and in the assay with Septoria tritici (St) (setting [12]) were 0.4 µg/mL (≈ 0.685 µM) and above 50 µg/mL, respectively.
